Assay results: patent publication US6866861B1, “Method and composition for enhancing milk component concentrations” (Land O'Lakes, Inc., priority 1999, dated 2005)

Tested on: cows
Assay: Oral feeding of sorbitol (not ruminally protected) to cows versus control group (Example 7)
Format: in vivo, cow
Method: To determine the weight percent total solids, wet basis, in a sample, the actual weight of total solids is determined by analyzing the sample in accordance with Method #925.23 (33.2.09) of Official Methods of Analysis, Association of Official Analytical Chemists (AOAC) (16th Ed., 1995). The weight percent total solids, wet basis, is then calculated by dividing the actual weight of total solids by the actual weight of the sample. The weight percent of true protein, wet basis, for a particular sample is calculated after first determining the wet basis weight percent of total Kjeldahl nitrogen and the wet basis weight percent of non-protein nitrogen in the sample. The wet basis weight percent of total Kjeldahl nitrogen in the sample is determined using the method referenced above. The wet basis weight percent of non-protein nitrogen (NPN) in the sample is determined in accordance with Method #991.21 (33.2.12) of Official Methods of Analysis, Association of Official Analytical Chemists (AOAC) (16th Ed., 1995). The weight percent of true protein, wet basis, in the sample is then determined by subtracting the wet basis weight percent of non-protein nitrogen in the sample from the wet basis weight percent of total Kjeldahl nitrogen in the sample. To determine the weight percent lactose, wet basis, in a liquid sample, the weight of the liquid sample is first determined. The actual weight of lactose in the liquid sample may then be determined using analysis kit number 176-303, that is available from Boehringer-Mannheim of Indianapolis, Ind. in accordance with the procedural instructions included with analysis kit number 176-303. The weight percent lactose, wet basis, in the liquid sample is then calculated by dividing the actual weight of lactose in the liquid sample by the actual weight of the liquid sample. To determine the weight percent fat, wet basis, in a sample, the actual weight of fat in the sample is determined in accordance with Method #974.09 (33.7.18) of Official Methods of Analysis, Association of Official Analytical Chemists (AOAC) (16th Ed., 1995). The weight percent fat, wet basis, is then calculated by dividing the actual weight of fat in the sample by the actual weight of the sample. In this example, ten cows were orally fed 100 grams per cow per day of sorbitol along with their other daily rations during a test period of four weeks, while ten different cows of a control group were orally fed the same daily rations as the ten cows, with the exception that the ten cows of this control group were not given any sorbitol. The milk of the cows in the control group and the milk of the cows given sorbitol was sampled twice per week during the four week test period. Therefore, the values presented in Table 6 below for the various milk components for the control group and for the cows fed sorbitol represent averages of eight milk samples during the test period. The probability value, P, that is presented in Table 6 for each of the different milk components is a measure of statistical probability that the differing values between the control cattle and the cattle fed sorbitol, for each respective milk component, can be explained by the difference between the control group not being fed sorbitol and the test group that was fed sorbitol. A P value of 0.10 means that 10 times out of 100 the results can be explained by factors other than the feeding or withholding of sorbitol. […]

[1] = milk, oral 100 gr/day, four weeks, 10 cows, average of eight samples

OC[C@@H](O)[C@@H](O)[C@H](O)[C@@H](O)CO [sorbitol] was tested, and the Fat [1] was 4.02 Wt %, the Lactose [1] was 4.81 Wt. % and the “Total Solids” value [1] was 12.11 Wt. %. For the same molecule, the “True Protein” value [1] was 2.76 Wt. % and the “weight percent of milk components versus control group (conclusion in words)” value (oral feeding, not ruminally protected) was “no statistically significant increase”.
